Measured values published in ChEMBL document CHEMBL1135692, “Structure-activity relationships of the melanocortin tetrapeptide Ac-His-D-Phe-Arg-Trp-NH2 at the mouse melanocortin receptors. 4. Modifications at the Trp position” (J Med Chem, 2002).

Tests used:
Assay type in all cases: cell-based
Melanocortin receptor 3 = Melanocortin receptor 3 (Mus musculus, UniProt P33033); assay: Activity in mouse melanocortin-3 receptor (mMC3R) stably expressed in HEK293 cells
Melanocortin receptor 5 = Melanocortin receptor 5 (Mus musculus, UniProt P41149); assay: Activity in mouse melanocortin-5 receptor stably expressed in HEK293 cells
[1] = molecular target: Melanocyte-stimulating hormone receptor (Mus musculus, UniProt Q01727); assay: Activity in mouse melanocortin-1 receptor stably expressed in HEK293 cells
Melanocortin receptor 4 = Melanocortin receptor 4 (Mus musculus, UniProt P56450); assay: Activity in mouse melanocortin-4 receptor stably expressed in HEK293 cells
Sequence of Melanocortin receptor 4 (P56450 whole entry): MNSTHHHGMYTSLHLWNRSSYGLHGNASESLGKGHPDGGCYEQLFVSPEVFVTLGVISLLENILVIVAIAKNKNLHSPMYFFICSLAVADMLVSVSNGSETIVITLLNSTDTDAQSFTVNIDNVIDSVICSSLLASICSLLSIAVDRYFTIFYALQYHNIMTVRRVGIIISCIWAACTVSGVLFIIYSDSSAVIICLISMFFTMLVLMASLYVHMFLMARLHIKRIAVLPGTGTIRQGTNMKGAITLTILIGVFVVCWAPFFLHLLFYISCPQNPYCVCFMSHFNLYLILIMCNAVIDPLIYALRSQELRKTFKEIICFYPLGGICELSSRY

Sequence of Melanocyte-stimulating hormone receptor (Q01727 whole entry): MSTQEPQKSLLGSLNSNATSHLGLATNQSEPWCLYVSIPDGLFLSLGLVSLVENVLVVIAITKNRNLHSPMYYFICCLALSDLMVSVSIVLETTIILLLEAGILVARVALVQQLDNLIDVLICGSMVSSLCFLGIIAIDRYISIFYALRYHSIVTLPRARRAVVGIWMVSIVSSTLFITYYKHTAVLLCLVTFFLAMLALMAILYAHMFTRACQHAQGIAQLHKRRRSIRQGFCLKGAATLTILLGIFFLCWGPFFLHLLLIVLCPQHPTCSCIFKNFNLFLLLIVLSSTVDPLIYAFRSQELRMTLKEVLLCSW
Sequence of Melanocortin receptor 5 (P41149 whole entry): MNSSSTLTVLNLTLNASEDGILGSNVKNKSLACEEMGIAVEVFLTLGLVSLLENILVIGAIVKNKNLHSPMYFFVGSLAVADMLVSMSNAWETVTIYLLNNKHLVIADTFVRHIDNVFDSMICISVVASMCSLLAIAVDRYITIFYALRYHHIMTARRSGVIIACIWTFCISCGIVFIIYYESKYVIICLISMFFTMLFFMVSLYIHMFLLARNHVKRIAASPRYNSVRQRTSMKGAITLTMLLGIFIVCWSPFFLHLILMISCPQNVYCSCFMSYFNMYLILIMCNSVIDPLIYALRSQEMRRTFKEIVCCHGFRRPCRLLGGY
Sequence of Melanocortin receptor 3 (P33033 whole entry): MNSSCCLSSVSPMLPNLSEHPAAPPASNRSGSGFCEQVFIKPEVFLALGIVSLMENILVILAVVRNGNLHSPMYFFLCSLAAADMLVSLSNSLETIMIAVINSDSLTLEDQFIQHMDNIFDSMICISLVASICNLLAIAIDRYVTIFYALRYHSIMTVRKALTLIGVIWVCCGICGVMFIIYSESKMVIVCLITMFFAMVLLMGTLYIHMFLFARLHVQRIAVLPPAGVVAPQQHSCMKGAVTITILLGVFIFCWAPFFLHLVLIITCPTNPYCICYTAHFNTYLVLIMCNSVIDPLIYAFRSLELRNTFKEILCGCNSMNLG

SMILES | EC50 (Melanocortin receptor 3) [nM] | EC50 (Melanocortin receptor 5) [nM] | EC50 [1] [nM] | EC50 (Melanocortin receptor 4) [nM] | EC50 (Melanocortin receptor 5; hek293) [nM] | EC50 (Melanocortin receptor 4; hek293) [nM]
CC(=O)N[C@@H](Cc1cnc[nH]1)C(=O)NC(Cc1ccccc1)C(=O)N[C@@H](CCCNC(=N)N)C(=O)N[C@@H](Cc1ccc(-c2ccccc2)cc1)C(N)=O (stereo in doubt) [listing 1 of 2 here] | 16200 |  |  |  |  | 
CC(=O)N[C@@H](Cc1c[nH]cn1)C(=O)N[C@@H](Cc1ccccc1)C(=O)N[C@@H](CCCN=C(N)N)C(=O)N[C@H](Cc1ccccc1)C(N)=O | 27000 |  |  |  |  | 
CC(=O)N[C@@H](Cc1cnc[nH]1)C(=O)N[C@H](Cc1ccccc1)C(=O)N[C@@H](CCCN=C(N)N)C(=O)NC(Cc1c[nH]c2ccccc12)C(N)=O (stereo in doubt) |  | 35.3 |  | 240 |  | 
CC(=O)N[C@@H](Cc1c[nH]cn1)C(=O)N[C@H](Cc1ccccc1)C(=O)N[C@@H](CCCN=C(N)N)C(=O)N[C@@H](Cc1ccccc1)C(N)=O |  | 890 | 530 | 7800 |  | 
CC(=O)N[C@@H](Cc1c[nH]cn1)C(=O)N[C@H](Cc1ccccc1)C(=O)N[C@@H](CCCN=C(N)N)C(=O)N[C@@]1(C(N)=O)CCc2ccccc2C1 (stereo in doubt; 20) | 9900 | 180 | 700 | 3460 |  | 
CC(=O)N[C@@H](Cc1cnc[nH]1)C(=O)N[C@H](Cc1ccccc1)C(=O)N[C@@H](CCCN=C(N)N)C(=O)N1Cc2ccccc2C[C@H]1C(N)=O | 23200 | 700 | 43 | 8500 |  | 
CC(=O)N[C@@H](Cc1cnc[nH]1)C(=O)N[C@H](Cc1ccccc1)C(=O)N[C@@H](CCCN=C(N)N)C(=O)N1Cc2ccccc2C[C@@H]1C(N)=O | > 100000 | 24800 | 1500 | 39400 |  | 
CC(=O)N[C@@H](Cc1c[nH]cn1)C(=O)NC(Cc1ccccc1)C(=O)N[C@@H](CCCN=C(N)N)C(=O)N[C@H](Cc1ccc(-c2ccccc2)cc1)C(N)=O (stereo in doubt) [listing 1 of 2 here] | 13400 |  |  |  |  | 
CC(=O)N[C@@H](Cc1c[nH]cn1)C(=O)N[C@@H](Cc1ccccc1)C(=O)N[C@@H](CCCN=C(N)N)C(=O)N[C@@H](C(N)=O)C(c1ccccc1)c1ccccc1 | 53300 |  |  |  |  | 
CC(=O)N[C@@H](Cc1c[nH]cn1)C(=O)NC(Cc1ccccc1)C(=O)N[C@@H](CCCN=C(N)N)C(=O)N[C@H](Cc1ccc2ccccc2c1)C(N)=O (stereo in doubt) [listing 1 of 2 here] |  | 4.86 | 17.9 | 15.8 |  | 
CC(=O)N[C@@H](Cc1c[nH]cn1)C(=O)N[C@H](Cc1ccccc1)C(=O)N[C@@H](CCCN=C(N)N)C(=O)N[C@@]1(C(N)=O)CCc2ccccc2C1 (stereo in doubt; 21) | 33500 | 960 | 680 | 8800 |  | 
CC(=O)N[C@@H](Cc1c[nH]cn1)C(=O)NC(Cc1ccccc1)C(=O)N[C@@H](CCCN=C(N)N)C(=O)N[C@H](Cc1ccc2ccccc2c1)C(N)=O (stereo in doubt) [listing 2 of 2 here] | 740 |  |  |  |  | 
CC(=O)N[C@@H](Cc1c[nH]cn1)C(=O)N[C@H](Cc1ccccc1)C(=O)N[C@@H](CCCN=C(N)N)C(=O)N[C@H](C(N)=O)C(c1ccccc1)c1ccccc1 |  | 7100 | 2300 | 11600 |  | 
CC(=O)N[C@@H](Cc1c[nH]cn1)C(=O)N[C@H](Cc1ccccc1)C(=O)N[C@@H](CCCN=C(N)N)C(=O)N[C@@H](C)C(N)=O | > 100000 | 38400 | 4400 | 43700 |  | 
CC(=O)N[C@@H](Cc1c[nH]cn1)C(=O)NC(Cc1ccccc1)C(=O)N[C@@H](CCCN=C(N)N)C(=O)NC(Cc1ccc2ccccc2c1)C(N)=O (stereo in doubt) [listing 1 of 2 here] |  | 12.1 | 127 | 46.2 |  | 
CC(=O)N[C@@H](Cc1c[nH]cn1)C(=O)NC(Cc1ccccc1)C(=O)N[C@@H](CCCN=C(N)N)C(=O)NC(Cc1ccccc1)C(N)=O (stereo in doubt) [listing 1 of 2 here] |  | 470 | 2500 | 1000 |  | 
CC(=O)N[C@@H](Cc1c[nH]cn1)C(=O)NC(Cc1ccccc1)C(=O)N[C@@H](CCCN=C(N)N)C(=O)NC(Cc1ccccc1)C(N)=O (stereo in doubt) [listing 2 of 2 here] | 15000 |  |  |  |  | 
CC(=O)N[C@@H](Cc1c[nH]cn1)C(=O)NC(Cc1ccccc1)C(=O)N[C@@H](CCCN=C(N)N)C(=O)N[C@H](Cc1ccc(-c2ccccc2)cc1)C(N)=O (stereo in doubt) [listing 2 of 2 here] |  | 100 | 51.9 | 2700 |  | 
CC(=O)N[C@@H](Cc1c[nH]cn1)C(=O)NC(Cc1ccccc1)C(=O)N[C@@H](CCCN=C(N)N)C(=O)NC(Cc1ccc2ccccc2c1)C(N)=O (stereo in doubt) [listing 2 of 2 here] | 1620 |  |  |  |  | 
CC(=O)N[C@@H](Cc1cnc[nH]1)C(=O)NC(Cc1ccccc1)C(=O)N[C@@H](CCCNC(=N)N)C(=O)NC(C(N)=O)C(c1ccccc1)c1ccccc1 (stereo in doubt) [listing 1 of 2 here] | 16000 |  |  |  |  | 
CC(=O)N[C@@H](Cc1cnc[nH]1)C(=O)NC(Cc1ccccc1)C(=O)N[C@@H](CCCNC(=N)N)C(=O)NC(C(N)=O)C(c1ccccc1)c1ccccc1 (stereo in doubt) [listing 2 of 2 here] |  | 7440 | 680 | 7800 |  | 

Second part, the compound after the results:

EC50 (Melanocortin receptor 3) [nM] | EC50 (Melanocortin receptor 5) [nM] | EC50 [1] [nM] | EC50 (Melanocortin receptor 4) [nM] | EC50 (Melanocortin receptor 5; hek293) [nM] | EC50 (Melanocortin receptor 4; hek293) [nM] | SMILES
 | 36000 | 3800 | 27600 |  |  | CC(=O)N[C@@H](Cc1cnc[nH]1)C(=O)NC(Cc1ccccc1)C(=O)N[C@@H](CCCNC(=N)N)C(=O)N[C@H](Cc1cnc[nH]1)C(N)=O (stereo in doubt) [listing 1 of 2 here]
 | 33.1 | 730 | 260 |  |  | CC(=O)N[C@@H](Cc1cnc[nH]1)C(=O)NC(Cc1ccccc1)C(=O)N[C@@H](CCCNC(=N)N)C(=O)N[C@H](Cc1cccc2ccccc12)C(N)=O (stereo in doubt) [listing 1 of 2 here]
 | 150 | 310 | 1500 |  |  | CC(=O)N[C@@H](Cc1cnc[nH]1)C(=O)NC(Cc1ccccc1)C(=O)N[C@@H](CCCNC(=N)N)C(=O)N[C@@H](Cc1ccc(-c2ccccc2)cc1)C(N)=O (stereo in doubt) [listing 2 of 2 here]
21900 |  |  |  |  |  | CC(=O)N[C@@H](Cc1cnc[nH]1)C(=O)NC(Cc1ccccc1)C(=O)N[C@@H](CCCNC(=N)N)C(=O)N[C@@H](Cc1cccc2ccccc12)C(N)=O (stereo in doubt) [listing 1 of 2 here]
 | 14500 | 2240 | 30000 |  |  | CC(=O)N[C@@H](Cc1cnc[nH]1)C(=O)NC(Cc1ccccc1)C(=O)N[C@@H](CCCNC(=N)N)C(=O)N[C@H](Cc1ccncc1)C(N)=O (stereo in doubt) [listing 1 of 2 here]
3500 |  |  |  |  |  | CC(=O)N[C@@H](Cc1cnc[nH]1)C(=O)NC(Cc1ccccc1)C(=O)N[C@@H](CCCNC(=N)N)C(=O)N[C@H](Cc1cccc2ccccc12)C(N)=O (stereo in doubt) [listing 2 of 2 here]
 |  |  |  | 3.96 | 17.2 | CC(=O)N[C@@H](Cc1cnc[nH]1)C(=O)NC(Cc1ccccc1)C(=O)N[C@@H](CCCNC(=N)N)C(=O)NC(Cc1c[nH]c2ccccc12)C(N)=O (stereo in doubt)
> 100000 |  |  |  |  |  | CC(=O)N[C@@H](Cc1cnc[nH]1)C(=O)NC(Cc1ccccc1)C(=O)N[C@@H](CCCNC(=N)N)C(=O)N[C@H](Cc1ccncc1)C(N)=O (stereo in doubt) [listing 2 of 2 here]
 | 750 | 750 | 5400 |  |  | CC(=O)N[C@@H](Cc1cnc[nH]1)C(=O)NC(Cc1ccccc1)C(=O)N[C@@H](CCCNC(=N)N)C(=O)N[C@@H](Cc1cccc2ccccc12)C(N)=O (stereo in doubt) [listing 2 of 2 here]
> 100000 |  |  |  |  |  | CC(=O)N[C@@H](Cc1cnc[nH]1)C(=O)NC(Cc1ccccc1)C(=O)N[C@@H](CCCNC(=N)N)C(=O)N[C@H](Cc1cnc[nH]1)C(N)=O (stereo in doubt) [listing 2 of 2 here]
3700 |  |  |  |  |  | CC(=O)N[C@@H](Cc1cnc[nH]1)C(=O)NC(Cc1ccccc1)C(=O)N[C@@H](CCCNC(=N)N)C(=O)N[C@H](Cc1csc2ccccc12)C(N)=O (stereo in doubt) [listing 1 of 2 here]
 | 850 | 2780 | 8120 |  |  | CC(=O)N[C@@H](Cc1cnc[nH]1)C(=O)NC(Cc1ccccc1)C(=O)N[C@@H](CCCNC(=N)N)C(=O)N[C@H](Cc1cccs1)C(N)=O (stereo in doubt) [listing 1 of 2 here]
30200 |  |  |  |  |  | CC(=O)N[C@@H](Cc1cnc[nH]1)C(=O)NC(Cc1ccccc1)C(=O)N[C@@H](CCCNC(=N)N)C(=O)N[C@H](Cc1cccs1)C(N)=O (stereo in doubt) [listing 2 of 2 here]
 | 47.7 | 79.9 | 143 |  |  | CC(=O)N[C@@H](Cc1cnc[nH]1)C(=O)NC(Cc1ccccc1)C(=O)N[C@@H](CCCNC(=N)N)C(=O)N[C@H](Cc1csc2ccccc12)C(N)=O (stereo in doubt) [listing 2 of 2 here]
